# Source: US12202841B2, “Therapeutic agents for enhancing epithelial and/or endothelial barrier function” (ARTUS THERAPEUTICS, INC., priority 2022, dated 2025)
# Entries after “also recorded” stand apart in the source; their conditions may differ.
# How the values were obtained:
# [1] = tested on: murine DSS model of ulcerative colitis; test: Murine DSS model of ulcerative colitis (acute); assay type: in vivo, mouse; conditions: for efficacy in the murine DSS model of colitis / DSS-elicited body weight loss / disease activity index (DAI) / colon length: 20 mg/kg oral gavage on days 4, 6, 8, 10; for efficacy in the murine DSS model of colitis: 2.5% DSS, C57BL/6 mice; for DSS-elicited body weight loss: FIG. 6E; for disease activity index (DAI): FIG. 6F; for colon length: day 12, FIG. 6B, 6C
# Method: FIGS. 6A-F illustrate efficacy of ARTX-339, ARTX-405A, ARTX-413, and ARTX-425P1 in the murine DSS model of ulcerative colitis. A. C57BL/6 mice (7-8-week old mice) were supplied with 2.5% DSS in their drinking water for 7 days. Starting on day 4 post DSS treatment, mice were dosed once every other day with 100 μL vehicle (0.25% sodium carboxymethylcellulose used in the formulation of ARTX compounds), or 100 μL ARTX-339, ARTX-405A, ARTX-413, or ARTX-425P1 at 20 mg/kg body weight by oral gavage on days 4, 6, 8, and 10. Mice were euthanized on day 12. FITC dextran was administered to the mice via oral gavage 4 hours preceding euthanization. Following euthanization, colons were dissected, and their length measured. B. Measurements of colon length. C. Photographs of dissected colons. D. Measurement of FITC-dextran in serum following euthanization. […] Higher levels of serum FITC-dextran following DSS-treatment is an indication of a loss of barrier function. E. Body weight was measured every other day starting at day 0 with the initiation of DSS treatment. F. Disease activity index (DAI) scores were assigned every other day. The higher the DAI score, the worse the symptoms. **** indicates p<0.0001; *** indicates p<0.001; ** indicates=p<0.01.
# A murine dextran sodium sulfate (DSS)-elicited model of ulcerative colitis was utilized to measure the efficacy of compounds in vivo. Oral administration of DSS in drinking water, a chemical colitogen with anticoagulant properties, leads to disruption of gut epithelium causing enhanced gut permeability, inflammation, and severe damage of gut barrier function^71,72. The rationale for using the murine DSS^71,72 model of UC is that it is a well-established gut epithelial barrier disrupting model that can be used to model both acute and chronic UC^70,71.
# Starting on day 4 post DSS treatment, mice were dosed once every other day with 100 μL vehicle (0.25% sodium carboxymethylcellulose used in the formulation of ARTX compounds), or 100 μL ARTX-339, ARTX-405A, ARTX-413, or ARTX-425P1 at 20 mg/kg body weight by oral gavage on days 4, 6, 8, and 10. Mice were euthanized on day 12. FITC dextran was administered to the mice via oral gavage 4 hours prior to euthanization. Following euthanization, colons were dissected, and their lengths were measured.
# [2] = Preliminary PK studies in rats; conditions: rat, in vivo
# Excerpt: (§1) However, potential genotoxicity of ARTX-86 is consistent with its planar structure, which may allow ARTX-86 to intercalate into the DNA double helix. It's possible that reactive metabolites of ARTX-86 are being formed by the S9 fraction and the ability of ARTX-86 to intercalate into the DNA helix delivers the radicals or other toxic metabolites directly to the DNA.
# [3] = Acute toxicity in rats; conditions: rat, in vivo
# Excerpt: as §1
# [4] = tested on: Cyp1A1; test: Activation of Cyp1A1 expression; assay type: cell-based
# Method: (§2) Step 2: Selected compounds from step 1 were tested at a range of concentrations for activation of Cyp1A1 mRNA levels using qRT-PCR, for activation of Cyp1A1 enzymatic activity (ethoxyresorufin-O-deethylase (EROD) assay), or activation of an AhR-reporter gene driven by a so-called dioxin-response element (DRE) using commercially available kits. Activation of Cyp1A1 mRNA levels, activation of Cyp1A1 enzymatic activity, or activation of an AhR reporter gene construct driven by a DRE is generally considered to be indicative of a compound's ability to function as an AhR ligand. When activated by a ligand, cytosolic AhR translocates to the nucleus and dimerizes with the AhR nuclear translocator protein ARNT. The AhR/ARNT complex then binds to DREs to activate gene transcription.
# [5] = tested on: TNBS-induced colitis in mice; test: Murine TNBS model of ulcerative colitis; assay type: in vivo; conditions: TNBS mouse model of UC
# Method: FIGS. 2A-D illustrates that UAS03 is efficacious in a mouse 2,4,6-trinitrobenzenesulfonic acid (TNBS) model when administered either pre- or post-TNBS treatment. Pre-treatment: Mice (n=10 per group) were given UAS03 orally QD (20 mg/kg) for 7 days followed by administration of TNBS. Mice were euthanized 72 h post-TNBS treatment. Post-treatment: Mice (n=10 per group) received UAS03 QD (20 mg/kg) 24, 48, and 72 h post-TNBS. A) Ratio of colon weight/length. B) Intestinal permeability evaluated using a FITC-dextran leakage assay. C) Serum levels of TNF-α measured using a standard ELISA method. D) Claudin-4 (Cldn4) expression in mouse colons. […] Error bars, ±SEM; ***p<0.001.
# Intra-rectal administration of 2,4,6-Trinitrobenzenesulfonic acid (TNBS) induces CD4^+-dependent colitis in mice resulting in increased intestinal permeability, shortening of colons, and increased inflammation^70. […] The symptoms that were reversed included body weight loss, colon weight/length ratio (FIG. 2A), increased gut permeability (FIG. 2B), and enhanced levels of inflammatory cytokines (FIG. 2C)^44. […] The beneficial effects of UAS03 in TNBS-treated mice were not observed in either AhR^−/− or Nrf2^−/− mutant mice^44. […] UAS03 was also efficacious in both acute and chronic dextran sodium sulfate (DSS)-induced^71,72 colitis models^44. […]
# [6] = biological target: hERG (Homo sapiens, UniProt Q12809); test: hERG assay
# Method: (§3) Step 4: Toxicity studies, including hERG and Ames tests, are conducted on compounds.
# [7] = tested on: Salmonella strains; test: Ames test
# Method: as §3, §1
# [8] = In vitro safety pharmacology assays
# [9] = tested on: AhR signaling pathway; test: Luciferase AhR-reporter gene (DRE) assay in human intestinal epithelial cells; assay type: cell-based; conditions: FIG. 7B
# Method: as §2
# (§4) In these experiments, human hepatic cells (FIG. 7A) or human intestinal epithelial cells (FIG. 7B) containing a luciferase AhR-reporter gene construct driven by a so-called dioxin-response element (DRE) were treated with various concentrations of ARTX-413 or with various concentrations of the well-studied AhR ligand β-naphthoflavone (BNF) using commercially available kits. Activation of Cyp1A1 mRNA levels, activation of Cyp1A1 enzymatic activity, or activation of an AhR reporter gene construct driven by a DRE is generally considered to be indicative of a compound's ability to function as an AhR ligand.
# [10] = tested on: AhR signaling pathway; test: Luciferase AhR-reporter gene (DRE) assay in human hepatic cells; assay type: cell-based; conditions: FIG. 7A
# Method: as §2, §4
# [11] = tested on: cytochrome P450 1A1 (Cyp1A1) and heme oxygenase 1 (HMOX1 or HO1) genes; conditions: cited from earlier work
# [12] = tested on: TNBS-induced colitis in mice; conditions: cited from earlier work
# [13] = tested on: LPS-elicited mouse peritonitis model; conditions: cited from earlier work
# [14] = tested on: bone marrow derived macrophages; conditions: cited from earlier work
# [15] = tested on: DSS-induced colitis in mice; conditions: cited from earlier work
# [16] = pH 2.0 in the presence of gastric enzymes; cited from earlier work
# [17] = tested on: HT-29 and Caco-2 intestinal epithelial cell lines; conditions: RNA-seq and qRT-PCR; cited from earlier work
# [18] = biological target: T1, AhR (Homo sapiens, UniProt P35869); conditions: published data; cited from earlier work
# T1 sequence (P35869 11-848): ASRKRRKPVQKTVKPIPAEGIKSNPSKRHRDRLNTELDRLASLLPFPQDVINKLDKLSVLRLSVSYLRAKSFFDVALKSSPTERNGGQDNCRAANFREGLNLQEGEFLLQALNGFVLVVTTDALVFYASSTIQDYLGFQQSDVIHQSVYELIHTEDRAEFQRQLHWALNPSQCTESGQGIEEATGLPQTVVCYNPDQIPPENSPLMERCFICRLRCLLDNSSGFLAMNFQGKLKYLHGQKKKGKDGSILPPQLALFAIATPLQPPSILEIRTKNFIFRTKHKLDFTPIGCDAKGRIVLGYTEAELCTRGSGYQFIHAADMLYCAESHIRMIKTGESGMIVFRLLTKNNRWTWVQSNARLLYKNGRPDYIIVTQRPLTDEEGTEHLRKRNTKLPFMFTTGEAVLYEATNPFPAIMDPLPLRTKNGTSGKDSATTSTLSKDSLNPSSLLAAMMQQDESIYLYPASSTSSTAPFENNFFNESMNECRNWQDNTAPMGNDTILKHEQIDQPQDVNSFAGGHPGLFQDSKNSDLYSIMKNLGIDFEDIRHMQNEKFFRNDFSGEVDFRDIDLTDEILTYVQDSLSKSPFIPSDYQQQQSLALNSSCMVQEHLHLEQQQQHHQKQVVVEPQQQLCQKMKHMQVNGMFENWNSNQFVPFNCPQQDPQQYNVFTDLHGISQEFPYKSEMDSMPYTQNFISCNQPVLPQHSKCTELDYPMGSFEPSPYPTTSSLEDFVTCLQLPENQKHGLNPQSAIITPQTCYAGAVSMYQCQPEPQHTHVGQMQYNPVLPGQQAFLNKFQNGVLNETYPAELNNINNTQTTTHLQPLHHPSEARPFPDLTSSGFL
# [19] = extensively tested; cited from earlier work
# hERG, sequence (Q12809 whole entry): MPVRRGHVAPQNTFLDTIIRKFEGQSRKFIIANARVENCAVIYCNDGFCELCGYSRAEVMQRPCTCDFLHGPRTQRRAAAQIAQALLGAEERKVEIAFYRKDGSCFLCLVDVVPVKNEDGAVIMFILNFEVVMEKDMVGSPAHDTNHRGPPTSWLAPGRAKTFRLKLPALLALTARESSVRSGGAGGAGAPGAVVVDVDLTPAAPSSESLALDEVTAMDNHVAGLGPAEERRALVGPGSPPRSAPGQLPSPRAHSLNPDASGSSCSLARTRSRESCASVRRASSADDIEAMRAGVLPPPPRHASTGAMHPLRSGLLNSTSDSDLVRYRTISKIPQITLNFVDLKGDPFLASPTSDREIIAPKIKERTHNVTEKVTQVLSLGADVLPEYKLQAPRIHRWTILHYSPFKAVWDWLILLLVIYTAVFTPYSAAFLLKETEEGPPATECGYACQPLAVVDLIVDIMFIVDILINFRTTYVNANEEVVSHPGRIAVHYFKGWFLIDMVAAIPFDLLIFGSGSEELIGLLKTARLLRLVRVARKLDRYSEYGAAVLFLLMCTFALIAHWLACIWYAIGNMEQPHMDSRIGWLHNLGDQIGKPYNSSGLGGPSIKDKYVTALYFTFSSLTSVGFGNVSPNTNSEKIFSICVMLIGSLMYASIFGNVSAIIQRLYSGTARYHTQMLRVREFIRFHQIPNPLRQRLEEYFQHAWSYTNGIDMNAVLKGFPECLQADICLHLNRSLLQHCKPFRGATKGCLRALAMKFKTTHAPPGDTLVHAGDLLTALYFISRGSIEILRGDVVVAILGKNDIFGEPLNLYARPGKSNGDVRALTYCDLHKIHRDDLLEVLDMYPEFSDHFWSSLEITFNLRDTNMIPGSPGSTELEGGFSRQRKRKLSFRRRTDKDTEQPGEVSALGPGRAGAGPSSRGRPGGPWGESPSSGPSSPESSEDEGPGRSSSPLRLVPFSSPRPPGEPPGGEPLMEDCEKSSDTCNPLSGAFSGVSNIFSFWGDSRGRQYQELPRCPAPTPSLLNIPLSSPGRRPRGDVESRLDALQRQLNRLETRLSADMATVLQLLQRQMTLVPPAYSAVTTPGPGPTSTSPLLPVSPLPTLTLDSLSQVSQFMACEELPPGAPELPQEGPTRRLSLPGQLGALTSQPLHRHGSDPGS
smiles,measurement,setting,value
"CC(C)[C@@H]1Oc2cc(O)ccc2-c2ccc(F)cc21 (single isomer, unassigned) [ARTX-425P1]",efficacy in the murine DSS model of colitis,[1],exhibited efficacy
same,DSS-elicited body weight loss,[1],highly statistically significant
same,disease activity index (DAI),[1],highly statistically significant
same,colon length,[1],a statistically significant increase in colon length was not observed
Oc1ccc2c(c1)OCc1cc(F)ccc1-2 [ARTX-86],half-life,[2]; 20 mg/kg,2.22 ± 0.5 h
same,Cmax,[2]; dosed at 20 mg/kg,0.092 ± 0.015 µg/mL
same,efficacy compared with UAS03,[1]; DSS mouse model of UC,equally efficacious as UAS03
same,NOAEL,[3],1000 mg/kg/day
same,MTD,[3]; acute toxicity,> 2000 mg/kg
same,"activating the expression of Cyp1A1, compared with UroA and UAS03",[4],comparably active as UroA and UAS03
same,efficacy compared with UAS03,[5],equally efficacious as UAS03
same,cardiotoxicity in hERG assay,[6]; up to 60 times the efficacious dose,not cardiotoxic
same,Ames test result,"[7]; one of the Salmonella strains, with / without liver S9 enzymes",tested positive in the presence but not the absence of liver S9 enzymes
"Oc1cc(O)c2c(c1)C1(CCCC1)c1cc(F)ccc1-2 [ARTX-405A, 7′-fluorospiro[cyclopentane-1,9′-fluorene]-2′,4′-diol]",efficacy in the murine DSS model of colitis,[1],exhibited efficacy
same,DSS-elicited body weight loss,[1],highly effective
same,disease activity index (DAI),[1],highly effective
same,colon length,[1],highly effective
"Oc1ncc2c(n1)OCc1cc(F)ccc1-2 [ARTX-413, 8-fluoro-6H-isochromeno[3,4-d]pyrimidin-3-ol]",efficacy in the murine DSS model of colitis,[1],exhibited efficacy
same,DSS-elicited body weight loss,[1],highly effective
same,disease activity index (DAI),[1],highly effective
same,colon length,[1],highly effective
same,off-target effects,[8],did not identify any significant off-target effects
same,activation of AhR reporter gene,[9],activate the AhR signaling pathway
same,activation of AhR reporter gene,[10],activate the AhR signaling pathway
same,hERG inhibition / risk of cardiotoxicity,[6]; FIG. 8,low risk of cardiotoxicity
same,Ames test result,[7]; concentrations as high as 1.0 mg/mL,non-genotoxic
Oc1ccc2c(c1)COc1cc(O)ccc1-2 [UAS03],expression of Cyp1A1 and HO1 genes,[11],activated
same,potency relative to UroA,[12]; TNBS model,about 10 fold
same,beneficial effects in AhR−/− or Nrf2−/− mutant mice,[12]; TNBS-treated AhR−/− or Nrf2−/− mice,not observed
same,claudin 4 (Cldn4) expression / protein levels,"[12]; TNBS-treated mice, colons",induced the expression; also recorded: reversed a dramatic decrease
same,"UC symptoms (body weight loss, colon weight/length ratio, gut permeability, inflammatory cytokines)","[12]; orally QD or BID for three days following TNBS, 20 mg/kg",dramatically reversed
same,development of TNBS-elicited symptoms,[12]; pre-treated QD for 7 days at 20 mg/kg,blocked
same,"levels of LPS-induced TNF-α, IL-6, CXCL-1, and IL-1β",[13],markedly decreased
same,"levels of LPS-induced TNF-α, IL-6, CXCL-1, and IL-1β",[14],markedly decreased
same,protection in chronic DSS model,"[15]; 4 cycles of 2% DSS, 90 day experiment, UAS03 QD 20 mg/kg",protected against DSS-induced chronic colitis
same,efficacy in acute and chronic DSS-induced colitis models,"[15]; mouse, in vivo",efficacious
same,time stable,[16],at least 12 hours
same,"expression of tight junction proteins claudin 4, ZO-1, and occludin 1",[17],upregulates
"O=c1oc2cc(O)ccc2c2ccc(O)cc12 [UroA, Urolithin A]",AhR ligand activity,[18],AhR ligand that activates the AhR signaling pathway
same,genotoxicity,[19],no indications of genotoxicity have been reported
same,hydrolysis,[16],rapidly hydrolyzed
